Experimental data: ChEMBL document CHEMBL1799925, “Inhibition of sphingosine 1-phosphate lyase for the treatment of rheumatoid arthritis: discovery of (E)-1-(4-((1R,2S,3R)-1,2,3,4-tetrahydroxybutyl)-1H-imidazol-2-yl)ethanone oxime (LX2931) and (1R,2S,3R)-1-(2-(isoxazol-3-yl)-1H-imidazol-4-yl)butane-1,2,3,4-tetraol (LX2932)” (J Med Chem, 2010)
Active and inactive are the calls of the source. The rule behind the calls is not given here.

Assays:
[1] = system: Mus musculus; assay: Antiarthritic activity in […] collagen-induced arthritis in mouse assessed as decrease in clinical scores at 30 mg/kg, po administered qd on day 20 after collagen challenge by ELISA; assay type: functional, organism-based; set-up: dose 30 mg/kg
[2] = system: Mus musculus; assay: Antiarthritic activity in […] collagen-induced arthritic mouse assessed as delay in onset of collagen-induced arthritis at 100 mg/kg, po administered qd one started one day before collagen challenge; assay type: functional, organism-based; set-up: dose 100 mg/kg
[3] = system: Mus musculus; assay: Effect on serum anti-CII antibody levels in type 2 collagen-induced arthritis in mouse at 30 mg/kg, po administered qd on day 20 after collagen challenge by ELISA; assay type: functional, organism-based; set-up: dose 30 mg/kg
[4] = system: Mus musculus; assay: Antiarthritic activity in […] collagen-induced arthritic mouse assessed as decrease in joint swelling at 100 mg/kg, po administered qd one started one day before collagen challenge; assay type: functional, organism-based; set-up: dose 100 mg/kg
[5] = system: Mus musculus; assay: Antiarthritic activity in […] collagen-induced arthritic mouse assessed as decrease in inflammation at 100 mg/kg, po administered qd one started one day before collagen challenge; assay type: functional, organism-based; set-up: dose 100 mg/kg
[6] = system: Mus musculus; assay: Antiarthritic activity in […] collagen-induced arthritis in mouse assessed as decrease in joint swelling at 5 mg/kg, po administered qd on day 20 after collagen challenge by ELISA; assay type: functional, organism-based; set-up: dose 5 mg/kg
[7] = system: Mus musculus; assay: Antiarthritic activity in […] collagen-induced arthritis in mouse assessed as decrease in clinical scores at 5 mg/kg, po administered qd on day 20 after collagen challenge by ELISA; assay type: functional, organism-based; set-up: dose 5 mg/kg
[8] = system: Rattus norvegicus; assay: Immunomodulatory activity in Sprague-Dawley rat liver assessed as reduction in peripheral blood lymphocyte level at 30 mg/kg, po administered daily for 3 days measured after 18 hrs by CBC analysis; assay type: functional, organism-based; set-up: dose 30 mg/kg
[9] = system: Rattus norvegicus; assay: Immunomodulatory activity in Sprague-Dawley rat spleen assessed as reduction in peripheral blood lymphocyte level at 30 mg/kg, po administered daily for 3 days measured after 18 hrs by CBC analysis; assay type: functional, organism-based; set-up: dose 30 mg/kg
[10] = system: Rattus norvegicus; assay: Immunomodulatory activity in Sprague-Dawley rat kidney assessed as reduction in peripheral blood lymphocyte level at 30 mg/kg, po administered daily for 3 days measured after 18 hrs by CBC analysis; assay type: functional, organism-based; set-up: dose 30 mg/kg
[11] = system: Mus musculus; assay: Antiarthritic activity in […] collagen-induced arthritic mouse assessed as decrease in erosion at 100 mg/kg, po administered qd one started one day before collagen challenge; assay type: functional, organism-based; set-up: dose 100 mg/kg
[12] = system: Rattus norvegicus; assay: Immunomodulatory activity in Sprague-Dawley rat heart assessed as reduction in peripheral blood lymphocyte level at 30 mg/kg, po administered daily for 3 days measured after 18 hrs by CBC analysis; assay type: functional, organism-based; set-up: dose 30 mg/kg
[13] = system: Mus musculus; assay: Antiarthritic activity in […] collagen-induced arthritis in mouse assessed as decrease in joint swelling at 30 mg/kg, po administered qd on day 20 after collagen challenge by ELISA; assay type: functional, organism-based; set-up: dose 30 mg/kg
[14] = system: Rattus norvegicus; assay: Immunomodulatory activity in Sprague-Dawley rat jejunum assessed as reduction in peripheral blood lymphocyte level at 30 mg/kg, po administered daily for 3 days measured after 18 hrs by CBC analysis; assay type: functional, organism-based; set-up: dose 30 mg/kg
[15] = system: Rattus norvegicus; assay: Immunomodulatory activity in Sprague-Dawley rat lymph node assessed as reduction in peripheral blood lymphocyte level at 30 mg/kg, po administered daily for 3 days measured after 18 hrs by CBC analysis; assay type: functional, organism-based; set-up: dose 30 mg/kg
[16] = system: Mus musculus; assay: Antiarthritic activity in […] collagen-induced arthritic mouse assessed as increase in CD4-positive cells in thymus at 100 mg/kg, po qd administered one day before collagen challenge; assay type: functional, organism-based; set-up: dose 100 mg/kg
[17] = system: Rattus norvegicus; assay: Increase in S1P level in Sprague-Dawley rat eye at 30 mg/kg, po administered daily for 3 days measured after 18 hrs […]; assay type: functional, organism-based; set-up: dose 30 mg/kg
[18] = system: Mus musculus; assay: Antiarthritic activity in […] collagen-induced arthritic mouse assessed as increase in CD8-positive cells in thymus at 100 mg/kg, po qd administered one day before collagen challenge; assay type: functional, organism-based; set-up: dose 100 mg/kg
[19] = system: Mus musculus; assay: Immunomodulatory activity in mouse assessed as induction of lymphopenia at 5 to 10 mg/kg, po administered as single dose measured after 18 hrs; assay type: functional, organism-based
[20] = system: Rattus norvegicus; assay: Immunomodulatory activity in Sprague-Dawley rat thymus assessed as reduction in peripheral blood lymphocyte level at 30 mg/kg, po administered daily for 3 days measured after 18 hrs by CBC analysis; assay type: functional, organism-based; set-up: dose 30 mg/kg
[21] = system: Mus musculus; assay: Antiarthritic activity in […] collagen-induced arthritic mouse assessed as decrease in synovial hyperplasia at 100 mg/kg, po administered qd one started one day before collagen challenge; assay type: functional, organism-based; set-up: dose 100 mg/kg
[22] = system: Rattus norvegicus; assay: Increase in S1P level Sprague-Dawley rat heart at 30 mg/kg, po administered daily for 3 days measured after 18 hrs […]; assay type: functional, organism-based; set-up: dose 30 mg/kg
[23] = system: Mus musculus; assay: Antiarthritic activity in […] collagen-induced arthritic mouse assessed as decrease in arthritic score at 100 mg/kg, po administered qd one started one day before collagen challenge; assay type: functional, organism-based; set-up: dose 100 mg/kg
[24] = system: Rattus norvegicus; assay: Immunomodulatory activity in Sprague-Dawley rat eye assessed as reduction in peripheral blood lymphocyte level at 30 mg/kg, po administered daily for 3 days measured after 18 hrs by CBC analysis; assay type: functional, organism-based; set-up: dose 30 mg/kg
[25] = system: Mus musculus; assay: Antiarthritic activity in […] collagen-induced arthritic mouse assessed as decrease in exudate formation at 100 mg/kg, po administered qd one started one day before collagen challenge; assay type: functional, organism-based; set-up: dose 100 mg/kg
[26] = system: Rattus norvegicus; assay: Immunomodulatory activity in Sprague-Dawley rat lung assessed as reduction in peripheral blood lymphocyte level at 30 mg/kg, po administered daily for 3 days measured after 18 hrs by CBC analysis; assay type: functional, organism-based; set-up: dose 30 mg/kg
[27] = (§1) AUC (0 to infinity) in 129/SvEvBrd X C57BL/6 F1 mouse at 10 mg/kg, po by LC/MS/MS analysis; assay type: ADME, organism-based, Plasma; set-up: time infinity, dose 10 mg/kg, route oral; conditions: 129/SvEvBrd X C57BL/6 F1, mouse, plasma
[28] = system: Mus musculus; assay: Immunomodulatory activity in 129/SvEvBrd X C57BL/6 F1 mouse assessed as decrease in peripheral blood lymphocyte count at 30 mg/kg, po measured after 18 hrs by complete blood count analysis relative to control; assay type: ADME, organism-based; set-up: dose 30 mg/kg, route oral; scale not given: the % may be the effect or the level left; conditions: in vivo
[29] = Volume of distribution at steady state in 129/SvEvBrd X C57BL/6 F1 mouse at 1 mg/kg, iv by LC/MS/MS analysis; assay type: ADME, organism-based; set-up: dose 1 mg/kg, route intravenous; conditions: in vivo, read-out: Vdss
[30] = Half life in 129/SvEvBrd X C57BL/6 F1 mouse at 10 mg/kg, po by LC/MS/MS analysis; assay type: ADME, organism-based; set-up: dose 10 mg/kg, route oral; conditions: in vivo
[31] = Cmax in 129/SvEvBrd X C57BL/6 F1 mouse at 10 mg/kg, po by LC/MS/MS analysis; assay type: ADME, organism-based; set-up: dose 10 mg/kg, route oral; conditions: in vivo
[32] = system: Mus musculus; assay: as §1; assay type: ADME, organism-based, Plasma; set-up: time infinity, dose 10 mg/kg, route oral; conditions: mouse, in vivo
[33] = Tmax in 129/SvEvBrd X C57BL/6 F1 mouse at 10 mg/kg, po by LC/MS/MS analysis; assay type: ADME, organism-based; set-up: dose 10 mg/kg, route oral; conditions: in vivo
[34] = system: Mus musculus; assay: Bioavailability in 129/SvEvBrd X C57BL/6 F1 mouse determined from 1 mg/kg, iv and 10 mg/kg, po by LC/MS/MS analysis; assay type: ADME, organism-based; conditions: mouse, in vivo

C/C(=N\O)c1ncc([C@@H](O)[C@H](O)[C@H](O)CO)[nH]1
Activity [1]: Active | Activity [2]: Active | Activity [3]: inactive | Activity [4]: Active | Activity [5]: Active | Activity [6]: Active | Activity [7]: Active | Activity [8]: Active | Activity [9]: Active | Activity [10]: Active | Activity [11]: Active | Activity [12]: Active | Activity [13]: Active | Activity [14]: Active | Activity [15]: Active | Activity [16]: Active | Activity [17]: inactive | Activity [18]: Active | Activity [19]: inactive | Activity [20]: Active | Activity [21]: Active | Activity [22]: inactive | Activity [23]: Active | Activity [24]: Active | Activity [25]: Active | Activity [26]: Active

Cl.OC[C@@H](O)[C@@H](O)[C@H](O)c1c[nH]c(-c2cc(-c3ccccc3)on2)n1
AUC(0-inf) [27]: 10.3 µM·h | Activity [28]: -2%

Cl.OC[C@@H](O)[C@@H](O)[C@H](O)c1c[nH]c(-c2cc(C(F)(F)F)on2)n1
AUC(0-inf) [27]: 7.8 µM·h | Activity [28]: 2%

Cl.OC[C@@H](O)[C@@H](O)[C@H](O)c1c[nH]c(C2=NOCC2)n1
AUC(0-inf) [27]: 8.3 µM·h | Activity [28]: -12%

CCc1conc1-c1nc([C@@H](O)[C@H](O)[C@H](O)CO)c[nH]1.Cl
AUC(0-inf) [27]: 26.9 µM·h | Activity [28]: -55%

Cl.OC[C@@H](O)[C@@H](O)[C@H](O)c1c[nH]c(-c2cc(C3CC3)on2)n1
AUC(0-inf) [27]: 9.6 µM·h | Activity [28]: -19%

Cl.OCc1cc(-c2nc([C@@H](O)[C@H](O)[C@H](O)CO)c[nH]2)no1
AUC(0-inf) [27]: 6.1 µM·h | Activity [28]: -7%

CC(=O)c1nc([C@@H](O)[C@H](O)[C@H](O)CO)c[nH]1.Cl
AUC(0-inf) [27]: 15 µM·h | Activity [28]: -25%

CCOc1cc(-c2nc([C@@H](O)[C@H](O)[C@H](O)CO)c[nH]2)no1.Cl
AUC(0-inf) [27]: 9.1 µM·h | Activity [28]: -26%

CC(C)c1cc(-c2nc([C@@H](O)[C@H](O)[C@H](O)CO)c[nH]2)no1.Cl
AUC(0-inf) [27]: 12.8 µM·h | Activity [28]: -30%

Cc1cc(-c2nc([C@@H](O)[C@H](O)[C@H](O)CO)c[nH]2)no1.Cl
AUC(0-inf) [27]: 12.5 µM·h | Activity [28]: -39%

CN(C)Cc1cc(-c2nc([C@@H](O)[C@H](O)[C@H](O)CO)c[nH]2)no1.Cl
AUC(0-inf) [27]: 5.9 µM·h | Activity [28]: -10%

Cc1cc(-c2nc([C@@H](O)[C@H](O)[C@H](O)CO)c[nH]2)on1.Cl
AUC(0-inf) [27]: 5.3 µM·h | Activity [28]: -4%

Cl.OC[C@@H](O)[C@@H](O)[C@H](O)c1c[nH]c(-c2ccon2)n1
Activity [1]: Active | Activity [3]: inactive | Vd [29]: 0.54 L/kg | Activity [6]: Active | Activity [7]: Active | half-life [30]: 2.9 h | Cmax [31]: 6.2 µM | Activity [13]: Active | AUC [32]: 21 µM·h | Activity [28]: -70% | Tmax [33]: 2.1 h | F [34]: 2.4%

Cc1onc(-c2nc([C@@H](O)[C@H](O)[C@H](O)CO)c[nH]2)c1[N+](=O)[O-].Cl
AUC(0-inf) [27]: 8.2 µM·h | Activity [28]: -27%

CC(=O)c1c(-c2nc([C@@H](O)[C@H](O)[C@H](O)CO)c[nH]2)noc1C.Cl
AUC(0-inf) [27]: 11.7 µM·h | Activity [28]: -6%
